Experimental data from patent US11076595B2, “1-(n,n-disubstituted carbamoyl) 4-(substituted sulfonyl)triazolin-5-one derivative, 4-(n,n-disubstituted carbamoyl) 1-(substituted sulfonyl)triazolin-5-one derivative, and herbicide containing said derivative as active ingredient” (HOKKO CHEMICAL INDUSTRY CO., LTD., priority 2017, dated 2021).

Key:
Format in all cases: in vivo
Monochoria vaginalis [1] = assay: Test Example 1: herbicidal effect test by soil treatment in paddy field; details: 120 g/10a, paddy soil treatment just after sowing, 14 days after treatment
Text: (§1) A Wagner pot having an area of 1/10000 are was filled with paddy field soil and after adding water, a chemical fertilizer (N:P:K=17:17:17) was mixed, followed by puddling. Thereafter, 30 grains of each of Echinochloa crus-galli, broad-leaved weed (Lindernia pyxidaria and Monochoria vaginalis) and Scirpus juncoides seeds were sown to a depth of 0 to 1 cm. Immediately after the sowing, the pot was flooded, and the depth of water was kept at about 3 cm. The pot was subsequently managed in a glass greenhouse. Just after that, an emulsifiable concentrate prepared according to Formulation Example 5 by using the compound shown in Table 5 below was diluted with water, and a predetermined amount of the water-diluted formulation was added dropwise. The application rate of the active ingredient, by conversion, corresponded to 120 g per 10 are.
(§2) This test was performed with two replications per one formulation concentration plot, and 14 days after the formulation treatments, the weed suppression rate (%) was determined according to the following equation (Math. 1). Weed suppression rate (%)=(1−an average dry weight (g) of plants in treated plots/an average dry weight (g) of plants in untreated plots)×100 [Math. 1]

Echinochloa crus-galli [2] = assay: as above; details: 120 g/10a, paddy soil treatment just after sowing, 14 days after treatment
Text: as §1, §2

Scirpus juncoides [3] = assay: as above; details: 120 g/10a, paddy soil treatment just after sowing, 14 days after treatment
Text: as §1, §2

Lindernia pyxidaria [4] = assay: as above; details: 120 g/10a, paddy soil treatment just after sowing, 14 days after treatment
Text: as §1, §2

Echinochloa crus-galli [5] = assay: Test Example 14: herbicidal effect test by foliage treatment in upland field; details: 7 days after sowing, 120 g/10a, 14 days after treatment
Method in brief: (§3)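 Weeds sown 20 seeds each in alluvial field soil; 7 days after sowing, water-diluted emulsifiable concentrate sprayed at 100 L per 10 are, 120 g active ingredient per 10 are. Suppression rate (%) from dry weight versus untreated plots at 14 days, two replicates.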

Amaranthus viridis [6] = assay: as above; details: 7 days after sowing, 120 g/10a, 14 days after treatment
Method in brief: as §3

crabgrass [7] = assay: as above; details: 7 days after sowing, 120 g/10a, 14 days after treatment
Method in brief: as §3

Chenopodium album [8] = assay: as above; details: 7 days after sowing, 120 g/10a, 14 days after treatment
Method in brief: as §3

crabgrass [9] = assay: Test Example 13: herbicidal effect test by soil treatment in upland field; details: 120 g/10a, 14 days after treatment
Method in brief: (§4)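 Soil-applied emulsifiable concentrate at 120 g active ingredient per 10 are, sprayed one day after seeding into alluvial soil pots. Dry-weight-based suppression scored at 14 days; two replications.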

Chenopodium album [10] = assay: as above; details: 120 g/10a, 14 days after treatment
Method in brief: as §4

Echinochloa crus-galli [11] = assay: as above; details: 120 g/10a, 14 days after treatment
Method in brief: as §4

Amaranthus viridis [12] = assay: as above; details: 120 g/10a, 14 days after treatment
Method in brief: as §4

Monochoria vaginalis [13] = assay: Test Example 12: herbicidal effect test by treatment during growing period in paddy field; details: 120 g/10a; treatment seven days after sowing in flooded paddy pot; assessed 14 days after treatment
Method in brief: (§5)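 Water-diluted emulsifiable concentrate added dropwise to flooded pots (~3 cm water) 7 d after sowing; rate 120 g active ingredient per 10 are. Weeds grown from 30 seeds each in puddled paddy soil under greenhouse conditions. Dry-weight suppression rate relative to untreated plots determined 14 d after treatment, duplicates.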

Echinochloa crus-galli [14] = assay: as above; details: 120 g/10a; treatment seven days after sowing in flooded paddy pot; assessed 14 days after treatment
Method in brief: as §5

Scirpus juncoides [15] = assay: as above; details: 120 g/10a; treatment seven days after sowing in flooded paddy pot; assessed 14 days after treatment
Method in brief: as §5

Lindernia pyxidaria [16] = assay: as above; details: 120 g/10a; treatment seven days after sowing in flooded paddy pot; assessed 14 days after treatment
Method in brief: as §5

Monochoria vaginalis [17] = assay: Test Example 11: herbicidal effect test by soil treatment in paddy field; details: 120 g/10a active ingredient, 14 days after treatment
Method in brief: (§6)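 Dry weight at day 14 relative to untreated controls gives the suppression rate; duplicate pots. Treatment: 120 g a.i./10 are into paddy water at sowing.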

Echinochloa crus-galli [18] = assay: as above; details: 120 g/10a active ingredient, 14 days after treatment
Method in brief: as §6

Scirpus juncoides [19] = assay: as above; details: 120 g/10a active ingredient, 14 days after treatment
Method in brief: as §6

Lindernia pyxidaria [20] = assay: as above; details: 120 g/10a active ingredient, 14 days after treatment
Method in brief: as §6

CC(C)N(C(=O)n1ncn(S(=O)(=O)c2cccs2)c1=O)c1ccc(F)cc1F [Compound 1-1060]
weed suppression rate, Monochoria vaginalis (Monochoria vaginalis [1]): 80% | weed suppression rate, Echinochloa crus-galli (Echinochloa crus-galli [2]): 90% | weed suppression rate, Scirpus juncoides (Scirpus juncoides [3]): 90% | weed suppression rate, Lindemia pyxidaria (Lindernia pyxidaria [4]): 80%

CC(C)N(C(=O)n1cnn(S(=O)(=O)N(C)C)c1=O)c1ccc(F)cc1 [Compound 11-1056]
herbicidal effect, Echinochloa crus-galli (Echinochloa crus-galli [5]): 80% | herbicidal effect, Amaranthus viridis (Amaranthus viridis [6]): 90% | herbicidal effect, Crabgrass (crabgrass [7]): 90% | herbicidal effect, Chenopodium album (Chenopodium album [8]): 80% | herbicidal effect, Crabgrass (crabgrass [9]): 90% | herbicidal effect, Chenopodium album (Chenopodium album [10]): 80% | herbicidal effect, Echinochloa crus-galli (Echinochloa crus-galli [11]): 80% | herbicidal effect, Amaranthus viridis (Amaranthus viridis [12]): 90% | Weed suppression rate (%) Monochoria vaginalis (Monochoria vaginalis [13]): 80% | Weed suppression rate (%) Echinochloa crus-galli (Echinochloa crus-galli [14]): 90% | Weed suppression rate (%) Scirpus juncoides (Scirpus juncoides [15]): 90% | Weed suppression rate (%) Lindemia pyxidaria (Lindernia pyxidaria [16]): 80% | Weed suppression rate (%) Monochoria vaginalis (Monochoria vaginalis [17]): 80% | Weed suppression rate (%) Echinochloa crus-galli (Echinochloa crus-galli [18]): 90% | Weed suppression rate (%) Scirpus juncoides (Scirpus juncoides [19]): 90% | Weed suppression rate (%) Lindemia pyxidaria (Lindernia pyxidaria [20]): 80%

CC(C)N(C(=O)n1cnn(S(=O)(=O)C2CCCCC2)c1=O)c1ccccc1 [Compound 11-283]
herbicidal effect, Echinochloa crus-galli (Echinochloa crus-galli [5]): 80% | herbicidal effect, Amaranthus viridis (Amaranthus viridis [6]): 90% | herbicidal effect, Crabgrass (crabgrass [7]): 90% | herbicidal effect, Chenopodium album (Chenopodium album [8]): 80% | herbicidal effect, Crabgrass (crabgrass [9]): 90% | herbicidal effect, Chenopodium album (Chenopodium album [10]): 80% | herbicidal effect, Echinochloa crus-galli (Echinochloa crus-galli [11]): 80% | herbicidal effect, Amaranthus viridis (Amaranthus viridis [12]): 90% | Weed suppression rate (%) Monochoria vaginalis (Monochoria vaginalis [13]): 90% | Weed suppression rate (%) Echinochloa crus-galli (Echinochloa crus-galli [14]): 90% | Weed suppression rate (%) Scirpus juncoides (Scirpus juncoides [15]): 90% | Weed suppression rate (%) Lindemia pyxidaria (Lindernia pyxidaria [16]): 90% | Weed suppression rate (%) Monochoria vaginalis (Monochoria vaginalis [17]): 70% | Weed suppression rate (%) Echinochloa crus-galli (Echinochloa crus-galli [18]): 100% | Weed suppression rate (%) Scirpus juncoides (Scirpus juncoides [19]): 90% | Weed suppression rate (%) Lindemia pyxidaria (Lindernia pyxidaria [20]): 90%

CC(C)N(C(=O)n1cnn(S(=O)(=O)N2CCCCC2)c1=O)c1ccc(F)cc1F [Compound 11-1102]
herbicidal effect, Echinochloa crus-galli (Echinochloa crus-galli [5]): 80% | herbicidal effect, Amaranthus viridis (Amaranthus viridis [6]): 90% | herbicidal effect, Crabgrass (crabgrass [7]): 90% | herbicidal effect, Chenopodium album (Chenopodium album [8]): 80% | herbicidal effect, Crabgrass (crabgrass [9]): 100% | herbicidal effect, Chenopodium album (Chenopodium album [10]): 100% | herbicidal effect, Echinochloa crus-galli (Echinochloa crus-galli [11]): 100% | herbicidal effect, Amaranthus viridis (Amaranthus viridis [12]): 90% | Weed suppression rate (%) Monochoria vaginalis (Monochoria vaginalis [13]): 80% | Weed suppression rate (%) Echinochloa crus-galli (Echinochloa crus-galli [14]): 100% | Weed suppression rate (%) Scirpus juncoides (Scirpus juncoides [15]): 90% | Weed suppression rate (%) Lindemia pyxidaria (Lindernia pyxidaria [16]): 70% | Weed suppression rate (%) Monochoria vaginalis (Monochoria vaginalis [17]): 90% | Weed suppression rate (%) Echinochloa crus-galli (Echinochloa crus-galli [18]): 100% | Weed suppression rate (%) Scirpus juncoides (Scirpus juncoides [19]): 90% | Weed suppression rate (%) Lindemia pyxidaria (Lindernia pyxidaria [20]): 100%

CC(C)N(C(=O)n1cnn(S(=O)(=O)C(C)C)c1=O)c1c(F)cc(F)cc1F [Compound 11-63]
herbicidal effect, Echinochloa crus-galli (Echinochloa crus-galli [5]): 100% | herbicidal effect, Amaranthus viridis (Amaranthus viridis [6]): 60% | herbicidal effect, Crabgrass (crabgrass [7]): 100% | herbicidal effect, Chenopodium album (Chenopodium album [8]): 70% | herbicidal effect, Crabgrass (crabgrass [9]): 100% | herbicidal effect, Chenopodium album (Chenopodium album [10]): 90% | herbicidal effect, Echinochloa crus-galli (Echinochloa crus-galli [11]): 100% | herbicidal effect, Amaranthus viridis (Amaranthus viridis [12]): 90% | Weed suppression rate (%) Monochoria vaginalis (Monochoria vaginalis [13]): 100% | Weed suppression rate (%) Echinochloa crus-galli (Echinochloa crus-galli [14]): 100% | Weed suppression rate (%) Scirpus juncoides (Scirpus juncoides [15]): 100% | Weed suppression rate (%) Lindemia pyxidaria (Lindernia pyxidaria [16]): 80% | Weed suppression rate (%) Monochoria vaginalis (Monochoria vaginalis [17]): 100% | Weed suppression rate (%) Echinochloa crus-galli (Echinochloa crus-galli [18]): 100% | Weed suppression rate (%) Scirpus juncoides (Scirpus juncoides [19]): 100% | Weed suppression rate (%) Lindemia pyxidaria (Lindernia pyxidaria [20]): 100%

CC(C)N(C(=O)n1cnn(S(=O)(=O)C(C)C)c1=O)c1ccc(F)cc1Cl [Compound 11-66]
herbicidal effect, Echinochloa crus-galli (Echinochloa crus-galli [5]): 80% | herbicidal effect, Amaranthus viridis (Amaranthus viridis [6]): 90% | herbicidal effect, Crabgrass (crabgrass [7]): 90% | herbicidal effect, Chenopodium album (Chenopodium album [8]): 80% | herbicidal effect, Crabgrass (crabgrass [9]): 90% | herbicidal effect, Chenopodium album (Chenopodium album [10]): 80% | herbicidal effect, Echinochloa crus-galli (Echinochloa crus-galli [11]): 80% | herbicidal effect, Amaranthus viridis (Amaranthus viridis [12]): 90% | Weed suppression rate (%) Monochoria vaginalis (Monochoria vaginalis [13]): 80% | Weed suppression rate (%) Echinochloa crus-galli (Echinochloa crus-galli [14]): 90% | Weed suppression rate (%) Scirpus juncoides (Scirpus juncoides [15]): 90% | Weed suppression rate (%) Lindemia pyxidaria (Lindernia pyxidaria [16]): 80% | Weed suppression rate (%) Monochoria vaginalis (Monochoria vaginalis [17]): 80% | Weed suppression rate (%) Echinochloa crus-galli (Echinochloa crus-galli [18]): 90% | Weed suppression rate (%) Scirpus juncoides (Scirpus juncoides [19]): 90% | Weed suppression rate (%) Lindemia pyxidaria (Lindernia pyxidaria [20]): 80%

CC(C)N(C(=O)n1cnn(S(=O)(=O)c2c(F)cccc2F)c1=O)c1ccccc1 [Compound 11-762]
herbicidal effect, Echinochloa crus-galli (Echinochloa crus-galli [5]): 90% | herbicidal effect, Amaranthus viridis (Amaranthus viridis [6]): 70% | herbicidal effect, Crabgrass (crabgrass [7]): 90% | herbicidal effect, Chenopodium album (Chenopodium album [8]): 60% | herbicidal effect, Crabgrass (crabgrass [9]): 90% | herbicidal effect, Chenopodium album (Chenopodium album [10]): 60% | herbicidal effect, Echinochloa crus-galli (Echinochloa crus-galli [11]): 80% | herbicidal effect, Amaranthus viridis (Amaranthus viridis [12]): 60% | Weed suppression rate (%) Monochoria vaginalis (Monochoria vaginalis [13]): 90% | Weed suppression rate (%) Echinochloa crus-galli (Echinochloa crus-galli [14]): 80% | Weed suppression rate (%) Scirpus juncoides (Scirpus juncoides [15]): 80% | Weed suppression rate (%) Lindemia pyxidaria (Lindernia pyxidaria [16]): 60% | Weed suppression rate (%) Monochoria vaginalis (Monochoria vaginalis [17]): 90% | Weed suppression rate (%) Echinochloa crus-galli (Echinochloa crus-galli [18]): 90% | Weed suppression rate (%) Scirpus juncoides (Scirpus juncoides [19]): 40% | Weed suppression rate (%) Lindemia pyxidaria (Lindernia pyxidaria [20]): 90%
